Measurements as given in publication PMC8512844, “Olive Pomace Phenolic Compounds Stability and Safety Evaluation: From Raw Material to Future Ophthalmic Applications” (Molecules, 2021).

Legend:
[1] = system: human corneal epithelial (HCE) cells; assay: In vitro genotoxicity, alkaline comet assay; format: cell-based; details: 24 h, 0.8 mg/mL CONV, 0.4 mg/mL OPT3, 300 μM OL, 100 μM HT, 5 μM + 50 μM OL+HT
From the text: (§1) According to the ICH guideline S2 (R1), comet assay evaluates the cell DNA damage under a neutral or alkaline electrophoretic field. This leads to the separation between intact and damaged cellular DNA, creating the typical “comet tail” visible from a microscope. By measuring this tail, the extent of the DNA damage can be estimated. In this study, we applied alkaline electrophoresis, because it is more sensitive and can detect smaller amounts of DNA damages, including single and double-stranded DNA breaks, alkali labile DNA adducts, and most oxidative DNA damage.
(§2) Two different human ocular surface cell lines were selected for this assay: HCE and the IM-ConjEpi. The two selected OP extracts (CONV and OPT3) were tested for their in vitro genotoxicity on both cell lines, together with the two principal pure olive compounds OL and HT, alone or in combination (OL+HT). For each compound or extract, the maximum allowable concentration was selected to be tested, based on the results of their in vitro cytotoxicity on the same cell lines, as previously described.
(§3) HCE is an immortalized human corneal epithelial cell line, kindly offered by Dr. Arto Urti (University of Helsinki, Finland). It was cultured in DMEM/F-12 + GlutaMax supplemented with 10% fetal bovine serum, 10 ng/mL human epithelial growth factor, 5 μg/mL human insulin and antibiotics (100 U/mL penicillin + 0.1 mg/mL streptomycin). IM-ConjEpi was supplied by Innoprot (Derio, Spain. Ref. P10870-IM) and is an SV40- Large T Antigen immortalized human conjunctival epithelial cell line. It was cultured in DMEM/F-12 + GlutaMax supplemented with 10% fetal bovine serum, 10 ng/mL human epithelial growth factor, 1 μg/mL bovine insulin and antibiotics ([…]). HCE cell line was used from passage 25 to 35, while IM-ConjEpi from passage 10 to 20.
(§4) The cells were incubated at 37 °C and 5:95 = CO2:air atmosphere ratio, while their medium was changed every second day. Observations through a phase-contrast microscope were carried out daily.
(§5) For the in vitro tests, HT, OL, CONV, and OPT3 were dissolved in culture medium (DMEM/F-12 + GlutaMax, without any supplement) the day of the experiment. As previously described, CONV was produced by conventional solid–liquid extraction using freeze-dried material without any further pretreatment. OPT3 was generated by PLE extraction using freeze-dried material previously defatted with scCO2. The part of the extracts not dissolved to the culture medium was filtered through a 0.20 μm polyvinylidene fluoride sterile filter. The in vitro concentrations were selected according to a previous study, which described the maximum allowable non-toxic concentration of HT, OL, CONV, and OPT3 on the two ocular surface cell lines used. […]

[2] = system: immortalized human conjunctival epithelial (IM-ConjEpi) cells; assay: In vitro genotoxicity, alkaline comet assay; format: cell-based; details: 24 h, 0.8 mg/mL CONV, 0.4 mg/mL OPT3, 300 μM OL, 100 μM HT, 5 μM + 50 μM OL+HT
From the text: as §1, §2, §3, §4, §5

[3] = Long-term storage stability of aqueous solutions (CPMP/ICH/2736/99), HPLC-DAD relative quantification; format: physicochemical; details: for kobs (first-order degradation rate constant) / t1/2 (half-time period) / tlag (lag time): pure aqueous solution; for stability as pure solution: first 30 days
Procedure: According to the guidance CPMP/ICH/2736/99, aqueous solutions of HT, OL, OPT3 extract, and CONV extract were stored at four different conditions of temperature (ambient, refrigerated, […], and intermediate) and humidity. The conditions were: T = 5 ± 3 °C (with no humidity), T = 25 ± 2 °C (with 60 ± 5% RH), T = 30 ± 2 °C (with 65 ± 5% RH) and T = 40 ± 2 °C (with 75 ± 5% RH) up to a final duration of 6 months. For OPT3, HT was relatively quantified as % with respect to the concentration (C0) at the initial time (t0), while for CONV both % HT and % OL content were calculated similarly. […] The stability of up to 6 months is presented in the Figure S1 of the Supplementary Material. […] The lag time (tlag) represents the time that the concentration of the compound remains constant and, if present, is determined as the intercept of the initial degradation time with the initial concentration value. The half-life period (t1/2) is calculated from Equation (2). The degradation constant (kobs), the t1/2, and the time lag (tlag) together with the correlation coefficient (R^2) for each compound and storage condition are presented in Table 5. ln(C0/Ct) = kobs(t - tlag)(1) t1/2 = ln(2)/k + tlag(2) The quantitative determination of HT, TY, and OL was performed by an HPLC-DAD system: Waters e2695 separation module with an autosampler (20 μL injection volume) and a quaternary pump, coupled with Waters 2998 photodiode array detector set at 280 nm (Waters®, Dublin, Ireland). A C18 Mediterranean Sea column (250 × 4.6 mm, 5 μm) (Teknokroma Analítica S.A., Barcelona, Spain) at 35 °C connected with an OptiGuard 1 mm guard column (Sigma-Aldrich, St. Louis, MO, USA) were used. The gradient method, together with the eluents and the elution program used, were selected according to […] et al.. Calibration curves for OL (range: 12.5-1250 mg/L, linearity: […] R^2 = 0.9969) were prepared, using standard solutions of the compounds in DMSO, and analyzed in the same conditions as the samples. Compounds in the extracts were identified by comparing the retention time and the UV spectra of the samples with those of the standard solutions, while MS spectra were also used to confirm identification (see 3.7.1. for experimental conditions). […] Samples and calibration curves of standard solutions were analyzed within the same day. For the 6-months storage stability, relative quantification was performed with respect to the initial quantity t0 of each analyte. For data acquisition and processing, Empower® 3 software (Waters®, Dublin, Ireland) was used. Briefly, all compounds and extracts were dissolved in Milli-Q water, as high mineralization could increase the degradation of these substances. Additionally, according to the bibliography, lower concentrations could accelerate the decomposition of a compound. […] All solutions were filtered through a 0.20 μm polyvinylidene fluoride filter. […] To fix the desired humidity for each temperature, appropriate salts have been used according to the bibliography. […] The vials were placed in big glass containers, together with a sufficient quantity of each salt. Then, they were closed airtight and left in different rooms of controlled temperature and protected from light for 6 months. […] For CONV, HT and OL content were measured, while for OPT3 only HT content was calculated due to the lack of OL in this extract. All samples were analyzed in triplicate and the results are expressed as mean of the percentage with respect to the initial concentration t0 ± SD.

Row | kobs (first-order degradation rate constant) ([3]; T = 5 °C/no humidity) | t1/2 (half-time period) ([3]; T = 5 °C/no humidity) | tlag (lag time) ([3]; T = 5 °C/no humidity) | kobs (first-order degradation rate constant) ([3]; T = 25 °C/60% RH) | t1/2 (half-time period) ([3]; T = 25 °C/60% RH) | tlag (lag time) ([3]; T = 25 °C/60% RH) | kobs (first-order degradation rate constant) ([3]; T = 30 °C/65% RH) | t1/2 (half-time period) ([3]; T = 30 °C/65% RH) | tlag (lag time) ([3]; T = 30 °C/65% RH) | kobs (first-order degradation rate constant) ([3]; T = 40 °C/75% RH) | t1/2 (half-time period) ([3]; T = 40 °C/75% RH) | tlag (lag time) ([3]; T = 40 °C/75% RH) | SMILES | Genotoxic effect (%TDNA) versus control group [1] | Genotoxic effect (%TDNA) versus control group [2] | also measured
1 | 0.0069 day⁻¹ | 101.5 days | 1.0 days | 0.0337 day⁻¹ | 21.6 days | 1.0 days | 0.1068 day⁻¹ | 6.5 days | 0 days | 0.1234 day⁻¹ | 5.6 days | 0 days | OCCc1ccc(O)c(O)c1 [HT, hydroxytyrosol] | No statistically significant differences | No statistically significant differences | stability as standard solution ([3]; 5 °C, first month): stable at a high percentage for the entire month; time from which the standard solution is completely degraded ([3]; 25 °C): fourth month; time from which the standard solution is completely degraded ([3]; 30 °C and 40 °C): third month
2 | 0.0099 day⁻¹ | 81.3 days | 11.3 days | 0.0065 day⁻¹ | 116.5 days | 9.9 days | 0.4022 day⁻¹ | 1.7 days | 0 days | 0.3658 day⁻¹ | 1.9 days | 0 days | C/C=C1/[C@H](O[C@@H]2O[C@H](CO)[C@@H](O)[C@H](O)[C@H]2O)OC=C(C(=O)OC)[C@H]1CC(=O)OCCc1ccc(O)c(O)c1 [OL, oleuropein] | No statistically significant differences | No statistically significant differences | stability as pure solution ([3]; 5 °C or 25 °C): remains at high levels; stability as standard solution ([3]; 25 °C or below): stable for up to 1 month; half-life at 113 mg/L ([3]; aqueous solution of the pure compound, pure solution, temperature above 30 °C, read-out: t1/2 (time to reduce the concentration to half of the initial value) (converted)): ~72 h; time the compound remains stable ([3]; pure solution, temperature values below 25 °C): approximately 11 days; final content compared to t0 ([3]; standard solution, 5 °C and 25 °C, 6 months): ca. 35%; stability as pure solution ([3]; temperature values above 30 °C): highly unstable
